Experimental data: patent US20250288573A1 (H. LEE MOFFITT CANCER CENTER AND RESEARCH INSTITUTE, INC., priority 2018, published 2025)
Like-named read-outs stand apart in the source and are kept apart here.

Legend:
cereblon (CRBN) [1] = target: cereblon (CRBN) (Homo sapiens, UniProt Q96SW2); assay: Kd and % inhibition from FI; format: binding; settings: for inhibition at 200 µM: read-out: % inhibition @ 200 uM from *FI
CRBN = target: T1, CRBN (Homo sapiens, UniProt Q96SW2); assay: Western blot for expression of CRBN relative to vinculin in human T cells (CRBN degradation); format: cell-based; settings: read-out: Relative Density of CRBN (% of DMSO)
T1 construct: endogenous in cells; host or cells: primary human T cells / CD8+ T cells from peripheral blood
Excerpt: Bortez=bortezomib; MG132=proteasome inhibitor; MLN4924=NEDD8 inhibitor.
This assay is a standard Western blot assay for expression of CRBN relative to vinculin.
[…] 0.1 percent DMSO was used as a vehicle control.

cereblon = target: T2, cereblon (Mus musculus, UniProt Q8C7D2); assay: Western blot of cereblon in splenic T cells / splenocytes of mice treated orally with a single dose; format: in vivo; settings: single oral dose of 75 mg/kg
T2 construct: from tissue; host or cells: spleen: purified splenic T cells and total splenocytes of treated mice
T2 sequence (Q8C7D2 1-445): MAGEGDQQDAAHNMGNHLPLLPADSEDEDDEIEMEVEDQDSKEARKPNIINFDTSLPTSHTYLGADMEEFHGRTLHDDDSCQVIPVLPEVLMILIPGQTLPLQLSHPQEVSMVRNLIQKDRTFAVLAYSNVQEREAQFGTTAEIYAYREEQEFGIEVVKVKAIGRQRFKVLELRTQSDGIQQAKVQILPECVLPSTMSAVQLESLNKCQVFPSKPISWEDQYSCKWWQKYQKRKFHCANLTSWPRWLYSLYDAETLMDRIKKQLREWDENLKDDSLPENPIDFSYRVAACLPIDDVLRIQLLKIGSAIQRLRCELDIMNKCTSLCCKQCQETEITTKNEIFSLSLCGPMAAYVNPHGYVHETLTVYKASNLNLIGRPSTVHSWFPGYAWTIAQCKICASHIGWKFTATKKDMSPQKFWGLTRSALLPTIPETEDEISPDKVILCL
Procedure: FIG. 24 is a graph of results from Western blots from purified splenic T cells of mice treated orally with a single dose of 75 mg/kg SM2-145. Three mice were obtained from each time point (1, 6, 12, and 24 hrs) after treatment.
FIG. 25 contains a Western blot analysis of purified T cells from mice treated orally with a single dose of 75 mg/kg EC2-035 and EC2-134.

cereblon (CRBN) [2] = target: T3, cereblon (CRBN) (Mus musculus, UniProt Q8C7D2); assay: Western blot of cereblon (CRBN) levels in mouse CD8+ T cells; format: cell-based; settings: 24 hours of treatment
T3 construct: endogenous in cells; host or cells: mouse CD8+ T cells
T3 sequence (Q8C7D2 1-445): T2 sequence (Q8C7D2 1-445)

[3] = 24 h, 10nM, human T cells, 24 hours
[4] = cell does not state FI or ITC, read-out: Kd (A) FI/ITC
[5] = FI, read-out: Kd (FI) (converted)

T1 sequence (Q96SW2 whole entry): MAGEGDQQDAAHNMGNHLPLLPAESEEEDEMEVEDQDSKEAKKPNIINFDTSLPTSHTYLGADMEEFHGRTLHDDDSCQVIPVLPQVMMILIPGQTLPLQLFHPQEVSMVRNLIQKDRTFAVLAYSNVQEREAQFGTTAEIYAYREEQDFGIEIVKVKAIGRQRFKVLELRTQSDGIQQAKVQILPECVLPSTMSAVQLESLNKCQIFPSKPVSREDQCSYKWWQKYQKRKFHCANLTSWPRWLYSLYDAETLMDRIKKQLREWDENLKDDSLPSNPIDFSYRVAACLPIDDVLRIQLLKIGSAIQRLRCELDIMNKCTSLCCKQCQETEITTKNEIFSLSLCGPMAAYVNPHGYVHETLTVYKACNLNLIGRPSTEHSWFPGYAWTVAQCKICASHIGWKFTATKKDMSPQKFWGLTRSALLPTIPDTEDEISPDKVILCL
Chain of cereblon (CRBN) (Homo sapiens, UniProt Q96SW2) (Q96SW2 whole entry, species assumed): as the sequence (Q96SW2 whole entry) above

SMILES | inhibition at 200 µM (cereblon (CRBN) [1]) [%] | remaining activity at 10 µM (CRBN; 10uM) [%] | remaining activity at 0.01 µM (CRBN; [3]) [%] | Kd (cereblon (CRBN) [1]; [5]) [µM] | other results
O=C1CCC(N2Cc3c(NC(=O)[C@H]4CC[C@H](C(=O)Nc5cccc6c5CN(C5CCC(=O)NC5=O)C6=O)CC4)cccc3C2=O)C(=O)N1 (stereo partly drawn) [EC1-154, (Trans)-N^1,N^4-Bis(2-(2,6-dioxopiperidin-3-yl)-1-oxoisoindolin-4-yl)cyclohexane-1,4-dicarboxamide] | 18.4 ± 77 | – | – | – | remaining activity at 0.01 µM (CRBN; 24 h): 103%; remaining activity at 10 µM (CRBN): 44.2%
O=C1CCC(N2Cc3c(OCc4ccc(CN5CCN(Cc6ccc(COc7cccc8c7CN(C7CCC(=O)NC7=O)C8=O)cc6)CC5)cc4)cccc3C2=O)C(=O)N1 (stereo not shown) [EC1-168.MS] | – | 107 | – | – | Kd (A) FI/ITC (cereblon (CRBN) [1]; cell does not state FI or ITC): insoluble
O=C1CCC(N2Cc3c(NCc4ccc(CNc5cccc6c5CN(C5CCC(=O)NC5=O)C6=O)cc4)cccc3C2=O)C(=O)N1 (stereo not shown) [EC2-035, 3,3′-(((1,4-Phenylenebis(methylene))bis(azanediyl))bis(1-oxoisoindoline-4,2-diyl))bis(piperidine-2,6-dione)] | – | 99.7 | 2.32 | – | cereblon levels in purified splenic T cells (cereblon): sustained reduction in cereblon levels at 6, 9 and 12 hours
O=C1CCC(N2Cc3c(C#CCCCCCCC#Cc4cccc5c4CN(C4CCC(=O)NC4=O)C5=O)cccc3C2=O)C(=O)N1 (stereo not shown) [EC2-086, 3,3′-(Deca-1,9-diyne-1,10-diylbis(1-oxoisoindoline-4,2-diyl))bis(piperidine-2,6-dione)] | – | 10.3 | – | – | Kd (cereblon (CRBN) [1]; [4]): 86.5 ± 25.3 µM
O=C1CCC(N2Cc3c(CCCCCCCCCCc4cccc5c4CN(C4CCC(=O)NC4=O)C5=O)cccc3C2=O)C(=O)N1 (stereo not shown) [EC2-093, 3,3′-(Decane-1,10-diylbis(1-oxoisoindoline-4,2-diyl))bis(piperidine-2,6-dione)] | – | 13.3 | – | – | Kd (cereblon (CRBN) [1]; [4]): 35.5 ± 47.9 µM
O=C(COc1cccc2c1C(=O)N(C1CCC(=O)NC1=O)C2=O)NCCCOCCCNC(=O)COc1cccc2c1C(=O)N(C1CCC(=O)NC1=O)C2=O (stereo not shown) [SM2-126] | 88.9 ± 1.54 | 13.2 | 136 | 13.7 ± 0.7 | –
O=C1CCC(N2Cc3c(CCCOCCOCCOCCCc4cccc5c4CN(C4CCC(=O)NC4=O)C5=O)cccc3C2=O)C(=O)N1 (stereo not shown) [SM2-129, 3,3′-((((Oxybis(ethane-2,1-diyl))bis(oxy))bis(propane-3,1-diyl))bis(1-oxoisoindoline-4,2-diyl))bis(piperidine-2,6-dione)] | 76.2 ± 1.54 | 12.4 | 53.6 | 11.1 ± 0.58 | –
O=C1CCC(N2Cc3c(CCCOCCOCCOCCOCCCc4cccc5c4CN(C4CCC(=O)NC4=O)C5=O)cccc3C2=O)C(=O)N1 (stereo not shown) [SM2-139, 3,3′-((4,7,10,13-Tetraoxahexadecane-1,16-diyl)bis(1-oxoisoindoline-4,2-diyl))bis(piperidine-2,6-dione)] | 79.6 ± 3.13 | 19.4 | 44.3 | 9.38 ± 0.59 | –
O=C1CCC(N2Cc3c(CCCOCCOCCOCCOCCOCCCc4cccc5c4CN(C4CCC(=O)NC4=O)C5=O)cccc3C2=O)C(=O)N1 (stereo not shown) [SM2-156, 3,3′-((4,7,10,13,16-Pentaoxanonadecane-1,19-diyl)bis(1-oxoisoindoline-4,2-diyl))bis(piperidine-2,6-dione)] | 79.5 ± 2.29 | 33.4 | 56.8 | 11.2 ± 0.53 | –
COCCOCCCc1cccc2c1CN(C1CCC(=O)NC1=O)C2=O (stereo not shown) [SM3-095, 3-(4-(3-(2-Methoxyethoxy)propyl)-1-oxoisoindolin-2-yl)piperidine-2,6-dione] | – | – | – | – | cereblon (CRBN) levels (Western blot) (cereblon (CRBN) [2]): not
O=C(COc1cccc2c1C(=O)N(C1CCC(=O)NC1=O)C2=O)NCCCCNC(=O)COc1cccc2c1C(=O)N(C1CCC(=O)NC1=O)C2=O (stereo not shown) [SY2-060, N,N′-(Butane-1,4-diyl)bis(2-((2-(2,6-dioxopiperidin-3-yl)-1,3-dioxoisoindolin-4-yl)oxy)acetamide)] | 1.52 ± 1.91 | – | – | – | remaining activity at 0.01 µM (CRBN; 24 h): 104%

Further lines, with some results ahead:

inhibition at 200 µM (cereblon (CRBN) [1]) [%] | remaining activity at 10 µM (CRBN; 10uM) [%] | remaining activity at 0.01 µM (CRBN; [3]) [%] | Kd (cereblon (CRBN) [1]; [5]) [µM] | SMILES | other results
72 ± 0.8 | 102 | 125 | 14.3 ± 0.05 | O=C(/C=C/c1cccc2c1CN(C1CCC(=O)NC1=O)C2=O)NCCOCCOCCNC(=O)/C=C/c1cccc2c1CN(C1CCC(=O)NC1=O)C2=O (stereo not shown) [SM3-003, (2E,2′E)-N,N′-((ethane-1,2-diylbis(oxy))bis(ethane-2,1-diyl))bis(3-(2-(2,6-dioxopiperidin-3-yl)-1-oxoisoindolin-4-yl)acrylamide)] | –
72.8 ± 1.38 | 91.1 | 80.6 | 15 ± 0.97 | O=C(CCc1cccc2c1CN(C1CCC(=O)NC1=O)C2=O)NCCOCCOCCNC(=O)CCc1cccc2c1CN(C1CCC(=O)NC1=O)C2=O (stereo not shown) [SM3-005, N,N′-((Ethane-1,2-diylbis(oxy))bis(ethane-2,1-diyl))bis(3-(2-(2,6-dioxopiperidin-3-yl)-1-oxoisoindolin-4-yl)propanamide)] | –
72.9 ± 1.19 | 85.3 | 110 | 15.2 ± 1.52 | O=C(/C=C/c1cccc2c1CN(C1CCC(=O)NC1=O)C2=O)NCCOCCNC(=O)/C=C/c1cccc2c1CN(C1CCC(=O)NC1=O)C2=O (stereo not shown) [SM3-006, (2E,2′E)-N,N′-(Oxybis(ethane-2,1-diyl))bis(3-(2-(2,6-dioxopiperidin-3-yl)-1-oxoisoindolin-4-yl)acrylamide)] | –
83.88 ± 0.28 | 59.1 | 108 | 8.21 ± 1.22 | O=C(/C=C/c1cccc2c1CN(C1CCC(=O)NC1=O)C2=O)NCCOCCOCCOCCNC(=O)/C=C/c1cccc2c1CN(C1CCC(=O)NC1=O)C2=O (stereo not shown) [SM3-009, (2E,2′E)-N,N′-(((Oxybis(ethane-2,1-diyl))bis(oxy))bis(ethane-2,1-diyl))bis(3-(2-(2,6-dioxopiperidin-3-yl)-1-oxoisoindolin-4-yl)acrylamide)] | –
72.4 ± 0.84 | 86.9 | 119 | 14.3 ± 0.52 | O=C(CCc1cccc2c1CN(C1CCC(=O)NC1=O)C2=O)NCCOCCNC(=O)CCc1cccc2c1CN(C1CCC(=O)NC1=O)C2=O (stereo not shown) [SM3-010, N,N′-(Oxybis(ethane-2,1-diyl))bis(3-(2-(2,6-dioxopiperidin-3-yl)-1-oxoisoindolin-4-yl)propanamide)] | –
73.39 ± 0.71 | 85.4 | 102 | 14.8 ± 1.08 | O=C(CCc1cccc2c1CN(C1CCC(=O)NC1=O)C2=O)NCCOCCOCCOCCNC(=O)CCc1cccc2c1CN(C1CCC(=O)NC1=O)C2=O (stereo not shown) [SM3-011, N,N′-(((Oxybis(ethane-2,1-diyl))bis(oxy))bis(ethane-2,1-diyl))bis(3-(2-(2,6-dioxopiperidin-3-yl)-1-oxoisoindolin-4-yl)propanamide)] | –
– | 136 | 1.75 | – | O=C1CCC(N2Cc3c(C#CCOCCOCC#Cc4cccc5c4CN(C4CCC(=O)NC4=O)C5=O)cccc3C2=O)C(=O)N1 (stereo not shown) [SY4-065] | Kd (A) FI/ITC (cereblon (CRBN) [1]; cell does not state FI or ITC): n.b.
– | – | 11.8 | 2.53 ± 1.53 | O=C1CC[C@H](N2Cc3c(C#CCOCCOCC#Cc4cccc5c4CN([C@H]4CCC(=O)NC4=O)C5=O)cccc3C2=O)C(=O)N1 [XS01-008B2, (3S,3'S)-3,3′-(((Ethane-1,2-diylbis(oxy))bis(prop-1-yne-3,1-diyl))bis(1-oxoisoindoline-4,2-diyl))bis(piperidine-2,6-dione)] | –
– | 0.98 | 61.3 | – | O=C1CCC(NC(=O)CCCCCCCCC(=O)NC2CCC(=O)NC2=O)C(=O)N1 (stereo not shown) [XS01-039, N^1,N^10-Bis(2,6-dioxopiperidin-3-yl)decanediamide] | Kd (cereblon (CRBN) [1]; [4]): 161 ± 19.3 µM; remaining activity at 0.01 µM (CRBN; 10nM, B2): 92.9%; remaining activity at 10 µM (CRBN; 10uM, B2): 13.1%
– | 25.9 | – | – | O=C1CCC(NC(=O)c2cccc(NC(=O)CCCC(=O)Nc3cccc(C(=O)NC4CCC(=O)NC4=O)c3)c2)C(=O)N1 (stereo not shown) [XS01-074, N^1,N^5-Bis(3-((2,6-Dioxopiperidin-3-yl)carbamoyl)phenyl)glutaramide] | Kd (cereblon (CRBN) [1]; [4]): 187 ± 16.2 µM
